# Assay results published in US12692255B2, “Adenosine 2A receptor modulators for use in the treatment of cancer” (UNIVERSITE DE GENEVE, priority 2022, dated 2026).
# Like-named read-outs stand apart in the source and are kept apart here.
# Legend:
# [1] = system: pCREB in gated human CD8+ cells; test: Intracellular pCREB by flow cytometry in NECA-treated PBMCs, gated CD8+ T cells; assay type: cell-based; details: read-out: Activity (reduction of pCREB, restoration to normal physiological levels)
# Protocol: (§1) Human peripheral blood mononuclear cells (PBMCs) were isolated using density centrifugation from fresh whole blood of healthy human blood donors. Cells were cryopreserved and thawed and rested for several hours in complete cell culture media containing human albumin and antibiotics (penicillin and streptomycin; 100 units or mg per ml respectively). […] DMSO was used as the storage diluent for concentrated A2AR antagonists. NECA and DMSO controls (% v/v) were also tested in parallel to the therapeutic candidates. After the indicated incubation time with NECA, cells were either stained to determine their intracellular level of pCREB, or activated with Dynabeads overnight before staining for intracellular cytokines, as described below.
# (§2) PBMCs that were cultured with A2AR antagonists in the presence of NECA and were subsequently fixed and permeabilized using ice cold paraformaldehyde and methanol-based kit reagents (ThermoFisher and Miltenyi, respectively). […] Stained cells were acquired using a Fortessa flow cytometer (BD). Gating of the desired cell subsets was performed using FSC-A vs FSC—H to remove doublet cells, FSC vs SSC parameters to identify cells with lymphocyte-like morphology, followed by CD3^+ T cell and CD4^+ or CD8^+ sub-gating. The fold change in mean fluorescence intensity (MFI) of intracellular pCREB in gated CD4 or CD8^+ T cells was calculated using NECA-only conditions, and divided by NECA and A2AR antagonist-cultured cells from the same donor. The overall activity of the tested compounds was calculated using the average of at least 3 donors.
# (§3) Compounds of the invention were tested in physiological conditions using healthy human peripheral blood mononuclear cells as well as in the presence of human albumin to increase the physiological relevance of the assay. […] The activity scale represented is the average for at least 3 donors, compared to the NECA-only control.
# [2] = system: pCREB in gated human CD4+ cells; test: Intracellular pCREB by flow cytometry in NECA-treated PBMCs, gated CD4+ T cells; assay type: cell-based; details: read-out: Activity (reduction of pCREB, restoration to normal physiological levels)
# Protocol: as §1, §2, §3
# A2AR = A2AR (Homo sapiens, UniProt P29274); test: cAMP biosensor antagonist potency assay in CHO cells expressing recombinant A2AR
# Protocol: Chinese Hamster Ovary (CHO) cells containing an in-house cAMP-based biosensor, described below, and expressing recombinant A2AR were used to characterize the potency of A2AR antagonists according to the invention. The biosensor contains a cAMP binding domain allowing the measurement of Gs and Gi-coupled receptors activation. Cells were treated in a 384 well plate with the indicated concentrations of A2AR antagonists, followed by the addition of an A2AR agonist, adenosine. cAMP levels were measured on a luminescent/fluorescent plate reader.
# CHO cells expressing A2AR and the biosensor were seeded in a black 384-well plate (Nunc) and grown at 37° C. and 5% CO2 overnight. […] The cAMP biosensor allowed real-time monitoring of signals using an FDSS/μCELL (Hamamatsu). The assay was conducted in 1× Hanks Balanced Salt Solution (HBSS). The total volume of the reaction was 80 μl (45 μl of cells, 15 μl of antagonist and 20 μl of agonist). Data analysis was performed using GraphPad Prism.
# [3] = compound at 1 μM, 5 µM NECA, gated human CD8+ cells, average of at least 3 donors vs NECA-only control
# [4] = compound at 1 μM, 5 µM NECA, gated human CD4+ cells, average of at least 3 donors vs NECA-only control
# A2AR, sequence (P29274 whole entry): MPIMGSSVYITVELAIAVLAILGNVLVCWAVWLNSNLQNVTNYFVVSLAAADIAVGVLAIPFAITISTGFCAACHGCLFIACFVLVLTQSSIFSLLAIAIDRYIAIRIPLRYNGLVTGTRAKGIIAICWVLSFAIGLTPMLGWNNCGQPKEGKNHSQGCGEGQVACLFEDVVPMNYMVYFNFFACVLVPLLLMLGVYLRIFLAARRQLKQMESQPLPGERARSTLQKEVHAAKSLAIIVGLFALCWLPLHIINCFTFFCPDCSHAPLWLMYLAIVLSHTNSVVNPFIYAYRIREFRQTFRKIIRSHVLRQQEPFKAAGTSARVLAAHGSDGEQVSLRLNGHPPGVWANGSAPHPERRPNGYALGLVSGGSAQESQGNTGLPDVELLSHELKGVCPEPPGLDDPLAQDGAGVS
IC50 (A2AR),SMILES,"inhibition at 1 µM [1, 3]","inhibition at 1 µM [2, 4]",inhibition at 1 µM ([1]; Homo sapiens),inhibition at 1 µM ([2]; Homo sapiens)
< 200 nM,"CCOc1nc(N)c(C#N)c(-c2cccc(-c3ccccc3)c2)c1C#N [Compound 22, 4-([1,1′-biphenyl]-3-yl)-2-amino-6-ethoxypyridine-3,5-dicarbonitrile]",,,,
< 200 nM,"N#Cc1c(N)nc(N2CCCCC2)c(C#N)c1-c1cccc(-c2ncccc2F)c1 [Compound 24, 2-amino-4-(3-(3-fluoropyridin-2-yl)phenyl)-6-(piperidin-1-yl)pyridine-3,5-dicarbonitrile]",40 to 70%,70 to 90%,,
< 200 nM,"N#Cc1c(N)nc(N2CCCCC2)c(C#N)c1-c1cccc(-c2cccc(F)n2)c1 [Compound 25, 2-amino-4-(3-(6-fluoropyridin-2-yl)phenyl)-6-(piperidin-1-yl)pyridine-3,5-dicarbonitrile]",,,,
200 to 1000 nM,"N#Cc1c(N)nc(N2CCCCC2)c(C#N)c1-c1cccc(-c2cc(F)ccn2)c1 [Compound 26, 2-amino-4-(3-(4-fluoropyridin-2-yl)phenyl)-6-(piperidin-1-yl)pyridine-3,5-dicarbonitrile]",,,,
200 to 1000 nM,"N#Cc1c(N)nc(N2CCCCC2)c(C#N)c1-c1cccc(-c2cncc(F)c2)c1 [Compound 27, 2-amino-4-(3-(5-fluoropyridin-3-yl)phenyl)-6-(piperidin-1-yl)pyridine-3,5-dicarbonitrile]",,,,
< 200 nM,"N#Cc1c(N)nc(N2CCCCC2)c(C#N)c1-c1cccc(-c2cccnc2F)c1 [Compound 28, 2-amino-4-(3-(2-fluoropyridin-3-yl)phenyl)-6-(piperidin-1-yl)pyridine-3,5-dicarbonitrile]",70 to 90%,> 90%,,
< 200 nM,"N#Cc1c(N)nc(N2CCCCC2)c(C#N)c1-c1cc(-c2cccnc2)ccc1F [Compound 29, 2-amino-4-(2-fluoro-5-(pyridin-3-yl)phenyl)-6-(piperidin-1-yl)pyridine-3,5-dicarbonitrile]",,,,
< 200 nM,"N#Cc1c(N)nc(N2CCCCC2)c(C#N)c1-c1cccc(-c2cccnc2)c1F [Compound 30, 2-amino-4-(2-fluoro-3-(pyridin-3-yl)phenyl)-6-(piperidin-1-yl)pyridine-3,5-dicarbonitrile]",0 to 40%,40 to 70%,,
< 200 nM,"N#Cc1c(N)nc(N2CCCCC2)c(C#N)c1-c1cc(F)cc(-c2cccnc2)c1 [Compound 31, 2-amino-4-(3-fluoro-5-(pyridin-3-yl)phenyl)-6-(piperidin-1-yl)pyridine-3,5-dicarbonitrile]",0 to 40%,40 to 70%,,

# Further lines, the molecule ahead of its results:
SMILES,IC50 (A2AR),"inhibition at 1 µM [1, 3]","inhibition at 1 µM [2, 4]",inhibition at 1 µM ([1]; Homo sapiens),inhibition at 1 µM ([2]; Homo sapiens)
"Cc1ccc(-c2nc(N)nc3c2nnn3Cc2cccc(CO[C@H]3CCOC3)n2)o1 [Ciforadenant, 7-(5-methylfuran-2-yl)-3-[[6-[[(3S)-oxolan-3-yl]oxymethyl]pyridin-2-yl]methyl]triazolo[4,5-d]pyrimidin-5-amine, reference compound]",,70 to 90%,70 to 90%,,
"N#Cc1c(N)nc(N2CCCCC2)c(C#N)c1-c1cccc(-c2ccccc2)c1 [Compound 3, 4-([1,1′-biphenyl]-3-yl)-2-amino-6-(piperidin-1-yl)pyridine-3,5-dicarbonitrile]",,,,> 90%,> 90%
"N#Cc1c(N)nc(N2CCCCC2)c(C#N)c1-c1cccc(-c2ccccc2F)c1 [Compound 4, 2-amino-4-(2′-fluoro-[1,1′-biphenyl]-3-yl)-6-(piperidin-1-yl)pyridine-3,5-dicarbonitrile]",,,,> 90%,> 90%
"N#Cc1c(N)nc(N2CCOCC2)c(C#N)c1-c1cccc(-c2ccccc2)c1 [Compound 18, 4-([1,1′-biphenyl]-3-yl)-2-amino-6-morpholinopyridine-3,5-dicarbonitrile]",200 to 1000 nM,,,,
"COc1nc(N)c(C#N)c(-c2cccc(-c3ccccc3)c2)c1C#N [Compound 21, 4-([1,1′-biphenyl]-3-yl)-2-amino-6-methoxypyridine-3,5-dicarbonitrile]",200 to 1000 nM,,,,
"Cc1c(C#N)cccc1-c1cc(-c2cn(Cc3cccc(C(C)(C)O)n3)nn2)nc(N)n1 [Etrumadenant, 3-[2-Amino-6-[1-[[6-(2-hydroxypropan-2-yl)pyridin-2-yl]methyl]triazol-4-yl]pyrimidin-4-yl]-2-methylbenzonitrile, reference compound]",,> 90%,> 90%,,
"Cc1cc(-c2nnc(N)nc2-c2ccc(F)cc2)cc(Cl)n1 [Imaradenant, 6-(2-chloro-6-methylpyridin-4-yl)-5-(4-fluorophenyl)-1,2,4-triazin-3-amine, reference compound]",,40 to 70%,40 to 70%,,
"COCCOc1ccc(N2CCN(CCn3ncc4c3nc(N)n3nc(-c5ccco5)nc43)CC2)cc1 [Preladenant, 4-(furan-2-yl)-10-[2-[4-[4-(2-methoxyethoxy)phenyl]piperazin-1-yl]ethyl]-3,5,6,8,10,11-hexazatricyclo[7.3.0.0^2,6]dodeca-1(9),2,4,7,11-pentaen-7-amine, reference compound]",,70 to 90%,70 to 90%,,
"Nc1nc(-n2cccn2)nc(-n2cccn2)c1Br [Taminadenant, 5-bromo-2,6-di(pyrazol-1-yl)pyrimidin-4-amine, reference compound]",,0 to 40%,0 to 40%,,
